Data on two compounds can be found in article PMC10791743, “Selective CK1α degraders exert antiproliferative activity against a broad range of human cancer cell lines” (Nature Communications, 2024).

A short description of data set [1]: Plasma stability assay, mouse. Type of data set: in vitro ADME. The note with it: for Calculated Concentration: 0h standards set to Actual Concentration 100, IS warfarin, replicates. How it is done:
(§1) page 32: Aldrich, Saint Louis, MO) were diluted into 0.1 M potassium phosphate buffer (PBS, pH 7.4, KH2PO4, Cat. No: P284-500; K2HPO4, Cat. No: BP363-500, Fisher Scientific, Fair Lawn, NJ) and mixed well. 40 μL of this solution was transferred into the above compounds plates. For the time 0 plate, 3 fold (v:v) cold acetonitrile with warfarin (400 ng/mL) as the internal standard was added to […] and B in PBS, pH 7.4) and no incubation. For the other five time points’ plates, 10 μL NADPH regenerating agent mixer was added to each well to initiate the reaction, the plate was sealed and incubated at 37° C on an orbital shaker (100 rpm) for the required time, followed by quenching of the reaction by adding 3-fold volume of cold acetonitrile with internal standard to each well. The final concentration of each component applied in this reaction was liver microsome protein at 0.5 […] After quenching, all plates were securely sealed and thoroughly mixed at 600 rpm for 10 minutes. Subsequently, centrifugation was performed at 4000 rpm for 20 minutes. The resulting supernatants […] analysis using UPLC–MS/MS. The assessment of metabolic stability involved determining the half- life through a least-squares fit of multiple time points, employing first-order kinetics. Plasma stability assay5: The degradation of human or mouse plasma was assessed by monitoring the gradual reduction of the parent compound over specified time intervals (0, 3, 24, and 48 hours). Human and mouse plasma samples were sourced from GeneTex (Irvine, CA). Test compound stock solutions, prepared at 10 mM in DMSO, were dispensed into triplicate wells of a 96-well microplate using the Labcyte Echo 650 dispenser. For plates, excluding the time 0-hour plate, plasma was […] The plate was sealed, incubated at 37°C on an orbital shaker (100 rpm) for the required duration, and then quenched with cold acetonitrile, incorporating warfarin as the internal standard. In the case of the time 0-hour plate, cold acetonitrile with the internal standard was added to each well before introducing plasma, eliminating page 33: the need for further incubation. Following quenching, all plates were thoroughly mixed at 600 rpm for 10 minutes and centrifuged at 4000 rpm for 20 minutes. Supernatants were transferred to […] MS/MS analysis. Plasma stability was evaluated by determining the half-life through a least-squares fit of multiple time points based on first-order kinetics. Plasma protein binding assay: Test compound stock solutions were prepared at a concentration of 10 mM in DMSO. A Single-Use RED (Rapid Equilibrium Dialysis) device was acquired from Thermo Scientific (Cat. No: 99006, Rockford, IL). The sample preparation for plasma protein binding followed a modified version of Waters' method6. After thawing, plasma was centrifuged at 1000 rpm for 10 minutes to eliminate any particulates. Each compound was then prepared at a concentration of 10 µM in either human or mouse plasma. In the plasma protein binding assessment, 300 µL of spiked plasma solutions were introduced into the sample chamber (indicated by the red ring), while 550 µL of DPBS was added to the adjacent chamber. The plate was sealed and incubated at 37°C on an orbital shaker (100 rpm) for 4 hours. Post -incubation, 50 µL aliquots were withdrawn from each side of the insert and dispensed into a 96 -well storage plate. To create analytically identical sample matrices (matrix matching), an equivalent volume of blank plasma or DPBS was added to the necessary wells, followed by quenching w ith 3-fold (v:v) cold acetonitrile containing warfarin as the internal standard. Subsequently, the sealed plates were well -mixed at 600 rpm for 10 minutes and then centrifuged at 4000 rpm for 20 minutes. Supernatants were transferred to analytical […] Test compound concentrations were quantified in both the buffer and plasma chambers by determining peak areas relative to the internal standard. […]

A short description of data set [2]: Plasma stability assay, human. Conditions: for Calculated Concentration: 0h standards set to Actual Concentration 100, IS warfarin, replicates. It is filed as in vitro ADME. The method, then: as §1
Setting [3] is: mouse plasma, regression of log concentration over time points 0, 3, 24, 48 h.
The mark [4] stands for this setting: human plasma, regression of log concentration over time points 0, 3, 24, 48 h.

Several values for one entry are separate records, joined by “and”; a condition that tells them apart may be missing. Identical values can stand only once.

Consider `O=C1CCC(N2Cc3cc(Nc4noc5ccccc45)ccc3C2=O)C(=O)N1` (stereo not drawn) [SJ3149], for which the Plasma stability in data set [1] (mouse) was > 10 h; in data set [2] (human), 8.5 h.
In the case of `O=C1CCC(N2Cc3cc(Nc4noc5ccccc45)ccc3C2=O)C(=O)N1` (stereo not drawn) [SJ001043149-1], the “Calculated Concentration” value in data set [1] (mouse plasma, time point 3h) was 89.527 and 94.878 and 96.383; in data set [1] (mouse plasma, time point 24h), 48.667 and 48.995 and 51.103; in data set [1] (mouse plasma, time point 48h) it was 26.458 and 25.987 and 26.969; in data set [2] (human plasma, time point 3h), 67.501 and 81.153 and 72.775; in data set [2] (human plasma, time point 24h), 13.370 and 15.407 and 13.318; in data set [2] (human plasma, time point 48h), 1.845 and 2.121 and 1.968. For the same compound, the Ke in data set [1] (setting [3]) worked out at 0.028; in data set [2] (setting [4]) it was 0.08114. Also, the entries for the “t(1/2)” value in data set [1] (setting [3]) and in data set [2] (setting [4]) were 24.7479 and 8.5413, respectively.
